Results: patent US11672811B2, “Materials and methods for suppressing and/or treating bone related diseases and symptoms” (Indiana University Research and Technology Corporation, priority 2017, dated 2023)
Square brackets hold non-standard residues; d marks the D form. Peptide text beside a SMILES is read from it. * marks the point of attachment. ξ: configuration not given here. Cbz = O=C(OCc1ccccc1)*; ξL = CC(C)CC(N)C(=O)O

How the values were obtained:
Notch target genes = test: Notch target gene mRNA in bone, brain and gut of BT-GSI treated mice; format: in vivo; conditions: compared to vehicle-treated mice
Description: FIG. 2A. Graphs illustrating the effect on Notch target genes.
FIG. 2B. Graphs illustrating the effect on Notch target genes.
(§1) Referring now to FIG. 1A, the control unconjugated GSI decreased Notch target gene expression (Hes1) in 5TGM1 myeloma cells, but BT-GSI-XII had no effect in vitro. […] (FIG. 1E).

[1] = test system: Notch target gene expression (Hes1); test: Notch target gene expression in 5TGM1 myeloma cells in vitro; format: cell-based; conditions: for inhibition of Notch target gene expression: compounds pre-incubated at low pH to mimic acidic conditions in resorption sites, myeloma cells; for Notch target gene expression (Hes1-Hey1): in vitro, 5TGM1 myeloma cells, not pre-incubated
Description: FIG. 1A. Graphs illustrating the effect on Notch target gene expression. In vitro, the control unconjugated GSI decreased Notch target gene expression (Hes1-Hey1) but BT-GSI-XII had no effect.
FIG. 1B. A graph illustrating the effect on Notch target gene expression.
as §1

[2] = test system: normal 4-month old female mice; test: In vivo administration of BT-GSI-XII to normal mice: tolerability, skin, gut toxicity biomarker
[3] = test system: Notch target genes Hes1/5/7 and Hey1/L; test: Co-administration of BT-GSI with iPTH in mice: Notch target gene expression in bone, brain, gut; format: in vivo; conditions: 2 wks
Method: (§2) To investigate whether a combination of iPTH (anabolic) and BT-GSI (anti-catabolic) increases bone mass to a higher extent than either agent alone, BT-GSI (5 mg/kg, 3×/wk) or saline was co-administered with iPTH (100 ng/g/day) or vehicle for 2 wks to 4-mo-old mice (n=10/group).

Hes1/5 expression = test: Ex vivo whole bone organ cultures, Hes1/5 expression; format: cell-based; conditions: compounds non-pre-incubated
Description: FIG. 1C. A schematic drawing illustrating an exemplary ex vivo system.
as §1

4-mo-old mice = test: Co-administration of BT-GSI with daily PTH injections (iPTH) in mice: bone mass, resorption and formation; format: in vivo
Method: as §2
(§3) No changes were found in M-Csf expression. Additionally, unconjugated GSI reduced Rankl-induced osteoclast differentiation in vitro with an EC50˜0.1 μM (FIG. 12D). Further, the bone-targeting molecule alone required a dose 10 times higher than GSI to decreased osteoclastogenesis. Referring now to FIG. 13, co-administration of BT-GSI decreased iPTH-induced elevated serum P1NP (e.g., about 30% decrease); however, the co-administration of BT-GSI maintained the iPTH-induced elevated bone formation rate (20%) and osteoblast number/surface (20%) in cancellous bone (FIG. 13B-C). Further, mice receiving iPTH alone or combined with BT-GSI induced elevated mRNA levels of Alp1, Runx2, Bglap, and Wnt target genes, and reduced mRNA level of Sost in bone (FIG. 13 D-E).

[4] = test system: normal 4-month old female mice; test: In vivo administration of BT-GSI-XII to normal mice: BMD, microCT, serum bone markers, osteoclasts/osteoblasts, bone cytokine and osteoblast marker mRNA
Description: Daily injections of PTH (iPTH) are thought to cause bone anabolism by increasing osteoblast number and function. However, iPTH can also increase bone resorption, which can limit bone gain. iPTH activates Notch signaling in osteocytes; and bone-targeted Notch inhibition using a γ-secretase inhibitor (GSI) conjugated to an alendronate-modified bone-targeting molecule (BT-GSI) decreases Notch signaling in bone, and reduces CTX (−40%) while preserving bone formation, leading to increases in BMD (4-7%) and cancellous bone volume (BV/TV; 30%).

[5] = test system: Rankl-induced osteoclast differentiation; test: Rankl-induced osteoclast differentiation in vitro; format: cell-based; conditions: read-out: EC50, reduction of Rankl-induced osteoclast differentiation
Method: as §3

[6] = 5 μg/g, 3×wk, 2 weeks, normal 4-month old female mice
[7] = single agent (iPTH 100 ng/g/day or BT-GSI 5 mg/kg 3×/wk)
[8] = BT-GSI 5 mg/kg 3×/wk co-administered with iPTH, 2 wks
[9] = BT-GSI co-administered with iPTH
[10] = BT-GSI co-administered with iPTH, cancellous bone
[11] = serum, 5 μg/g, 3×wk, 2 weeks, mice

CC[C@H](C)[C@H](NC(=O)OCc1ccccc1)C(=O)NC(/C=N/N(C)CCCC(=O)NC(P(=O)(O)O)P(=O)(O)O)CC(C)C (stereo partly drawn) [BT-GSI-XII]
Notch target gene mRNA expression in brain or gut (Notch target genes; brain, gut): not in brain or gut
Notch target gene (Hey2, Hes5, Hes7, HeyL) mRNA expression in bone (Notch target genes; whole bone preparations): decreases
inhibition of Notch target gene expression [1]: equal inhibition
Notch target gene expression (Hes1-Hey1) [1]: no effect
skin issues [2, 6]: no skin issues were observed
tolerability [2, 6]: well tolerated
Apsidin expression in the gut, a biomarker of gastrointestinal toxicity ([2]; treated mice vs vehicle, gut): did not increase
iPTH-induced elevated expression of Hes1/5/7 and Hey1/L in bone ([3]; BT-GSI 5 mg/kg 3×/wk co-administered with iPTH 100 ng/g/day): decreased the iPTH-induced elevated expression of Hes1/5/7 and Hey1/L to a level comparable to the control mice
expression of Notch target genes in brain or gut [3, 7]: remained unchanged
expression of Notch target genes in brain or gut ([3]; the combination of iPTH and BT-GSI): remained unchanged
Hes1/5 expression (Hes1/5 expression): similarly decreased
increase in femoral BMD (4-mo-old mice; [8]): 17%
increase in spinal BMD (4-mo-old mice; [8]): 7%
increase in total BMD (4-mo-old mice; [8]): 10%
additional increase in cancellous BV/TV (L4 and distal femur) compared to the iPTH-induced increase (4-mo-old mice; [9]): 25%
additional increase in trabecular thickness compared to the iPTH-induced increase (4-mo-old mice; [9]): 25%
decrease of iPTH-induced elevated serum P1NP (4-mo-old mice; [9]): about 30%
effect on iPTH-induced increase in cortical bone area (4-mo-old mice; [9]): did not alter
iPTH-induced elevated Rankl/Opg expression ratio in bone (4-mo-old mice; [9]): remained unchanged
serum CTX level (4-mo-old mice; [9]): less than those exhibited in control mice
iPTH-induced elevated bone formation rate (4-mo-old mice; [10]): maintained
iPTH-induced elevated osteoblast number/surface (4-mo-old mice; [10]): maintained
osteoclast number/surface level (4-mo-old mice; [10]): less than those exhibited in control mice
mRNA level of Sost in bone (4-mo-old mice; iPTH combined with BT-GSI): reduced
mRNA levels of Alp1, Runx2, Bglap, and Wnt target genes in bone (4-mo-old mice; iPTH combined with BT-GSI): elevated
higher femoral BMD compared to control mice ([4]; 5 μg/g, 3×wk, 2 weeks, mice): 4%
higher spinal BMD compared to control mice ([4]; 5 μg/g, 3×wk, 2 weeks, mice): 7%
higher total BMD compared to control mice ([4]; 5 μg/g, 3×wk, 2 weeks, mice): 3%
increased cancellous bone volume (BV/TV) compared to vehicle-treated mice ([4]; microCT analysis): 25%
increased trabecular thickness compared to vehicle-treated mice ([4]; microCT analysis): 10%
increased cancellous bone volume (BV/TV) compared to vehicle-treated mice ([4]; microCT analysis, listed as BT-GSI): 30%
circulating levels of the bone formation marker P1NP [4, 11]: did not affect
decrease of serum CTX, a marker of bone resorption [4, 11]: 40%
increases in BMD ([4]; summary statement, sites not named): 4-7%
bone formation and mineral apposition rates ([4]; treated mice): remained unchanged
decrease in the bone surface covered by osteoclasts compared to control mice ([4]; treated mice): 50%
number of osteoblasts ([4]; treated mice): remained unchanged
Opg mRNA expression in bone ([4]; treated mice vs vehicle): increased
Rankl/Opg ratio in bone ([4]; treated mice vs vehicle): decreasing
Opg mRNA expression in bone ([4]; treated mice vs vehicle, listed as BT-GSI): upregulated
expression of osteoblast markers, including Wnt target genes and the osteocyte-derived Sost/Sclerostin ([4]; treated mice, bone): remained unchanged
bone formation and mineral apposition rates ([4]; treated mice, listed as BT-GSI): preserving

CC[C@H](C)[C@H](NC(=O)OCc1ccccc1)C(=O)N[C@H](C=O)CC(C)C [GSI-XII, reference compound] (Cbz-Ile-Leu-aldehyde)
EC50 [5]: ~100 nM
Notch target gene expression (Hes1-Hey1) [1]: decreased

CC[C@H](C)[C@H](NC(=O)OCc1ccccc1)C(=O)NC(C=O)CC(C)C (stereo partly drawn) [GSI-XII, reference compound] (Cbz-Ile-[ξL]-aldehyde)
inhibition of Notch target gene expression [1]: equal inhibition
Hes1/5 expression (Hes1/5 expression): similarly decreased

B1: iPTH: daily injections of PTH (parathyroid hormone) (protein, UniProt P01270 32-115, looked up)
Parathyroid hormone: SVSEIQLMHNLGKHLNSMERVEWLRKKLQDVHNFVALGAPLAPRDAGSQRPRKKEDNVLVESHEKSLGEADKADVNVLTKAKSQ
modifications: Parathyroid hormone
expression of the Notch target genes Hes1/5/7 and Hey1/L in bone ([3]; iPTH 100 ng/g/day alone): increased
expression of Notch target genes in brain or gut [3, 7]: remained unchanged
increase in femoral BMD (4-mo-old mice; iPTH 100 ng/g/day alone, 2 wks): 13%
increase in total BMD (4-mo-old mice; iPTH 100 ng/g/day alone, 2 wks): 7%
spinal BMD change (4-mo-old mice; iPTH 100 ng/g/day alone, 2 wks): 0%
iPTH-induced elevated Rankl/Opg expression ratio in bone (4-mo-old mice; iPTH alone): 1.5 fold
iPTH-induced elevated serum CTX (4-mo-old mice; iPTH alone): 30%
iPTH-induced increase in cortical bone area (4-mo-old mice; iPTH alone): 8%
mRNA level of Sost in bone (4-mo-old mice; iPTH alone): reduced
mRNA levels of Alp1, Runx2, Bglap, and Wnt target genes in bone (4-mo-old mice; iPTH alone): elevated
serum P1NP (4-mo-old mice; iPTH alone): elevated
iPTH-induced elevated bone formation rate (4-mo-old mice; iPTH alone, cancellous bone): 20%
iPTH-induced elevated osteoblast number/surface (4-mo-old mice; iPTH alone, cancellous bone): 20%
iPTH-induced elevated osteoclast number/surface (4-mo-old mice; iPTH alone, cancellous bone): 25%
